Measurements as given in PMC4947679, “Quantitative In Vitro and In Vivo Evaluation of Intestinal and Blood-Brain Barrier Transport Kinetics of the Plant N-Alkylamide Pellitorine” (BioMed Research International, 2016).
Read-outs that look alike come from different tables or passages of the source.

Columns and labels:
fatty acid uptake = test system: fatty acid uptake; parameters: method as in PMID 25422952; conditions: in vitro; cited from earlier work
[1] = Blood-to-brain transport, multiple time regression (MTR) analysis in mice
Procedure: Seven-to-ten-week-old female, Institute for Cancer Research, Caesarean Derived-1 (ICR-CD-1) mice (Harlan Laboratories, Venray, Netherlands) weighing 29–32 g were used for the BBB transport experiments. The experiments were performed according to the Ethical Committee principles of laboratory animal welfare as approved by Ghent University (Faculty of Veterinary Medicine, number EC2014/128).
An in vivo multiple time regression (MTR) analysis was performed in order to determine whether pellitorine could enter the brain. A dose solution of 1.8 mg/mL pure pellitorine dissolved in 6.9% EtOH, 2.5% dimethylacetamide, and 0.5% tween 80 (all w/w) diluted in lactated Ringer's solution containing 1% BSA was prepared. After anesthetizing the mice intraperitoneally with a 40% (w/V) urethane solution (3 g/kg), the jugular internalis vein and carotid artery were isolated and 20 μL of the pellitorine dose solution was injected into the jugular vein. After 1, 3, 5, 10, 12.5, and 15 min after injection (with start and end in duplicate), blood was collected from the carotid artery. Immediately thereafter, the mice were decapitated and the brains were isolated. […] The serum concentrations of pellitorine were plotted against the time (expressed in min). The curve was fitted using a first-order kinetic, two-compartment model: C(t) = C 1 × e ^−α×t + C 2 × e ^−β×t, in which C is the concentration of pellitorine in serum at time t, α and β are hybrid constants, dependent on the rate constants k e (elimination rate constant), k 1,2 (rate constant between central and peripheral tissue compartment), k 2,1 (rate constant between peripheral tissue and central compartment), C 1 is the concentration obtained after extrapolation of the distribution phase α to the y-axis, and C 2 is the concentration obtained after extrapolation of the elimination phase β to the y-axis. The ratio of the pellitorine brain and serum concentration (μL/g) was plotted versus the exposure time (θ), which is a derived time variable of the Gjedde-Patlak plot, to determine the BBB influx kinetics of pellitorine.
The exposure time is computed as θ = ∫0 ^T((C s(t) · dt)/C s(T)) and is defined as the integral of the concentration of pellitorine in serum from start (t = 0 min) to time T, divided by the concentration of pellitorine in serum at time T. The integral of the concentration of pellitorine in serum from zero to time T is the area under the curve until time T.
The brain uptake of pellitorine was fitted using a biphasic model, as elaborated by Wong et al.: (4) CbrainT/CsTK·θ+Vg·1−e^−θ·K1−K/Vg+V0≅K=0Vg·1−e^−θ·K1/Vg+V0 in which C brain(T) is the concentration of pellitorine in the brain at time T (ng/g), C s(T) the concentration of pellitorine in serum at time T (ng/μL), K the net clearance (μL/(g·min)), V g the tissue brain distribution volume (μL/g), K 1 the unidirectional clearance from pellitorine from blood to brain (i.e., the unidirectional brain transfer coefficient, also referred to as influx rate) (μL/(g·min)), and V 0 the vascular brain distribution volume (μL/g).

[2] = Oral gavage pharmacokinetic experiment with rats; format: in vivo, Wistar rats; conditions: rat
Procedure: Male and female Wistar rats weighing approximately 220 g were obtained from Bharat Serum and Vaccines Pvt. Ltd., Thane, India (registration number 103/99/CPCSEA) and were housed at CU Shah College of Pharmacy, SNDT Women's University, Santacruz, Mumbai, India (registration number 39/99/CPCSEA) where the experiments were carried out. Rats of 7-8 weeks of age were fasted overnight and used for the experiments.
A pellitorine dose solution was prepared using the Anacyclus pyrethrum extract. To the rats, 1.5 mL of a 0.73 mg pellitorine/g dose solution in 10 : 20 : 30 : 40 (w/w/w/w) EtOH : PG : Vit E-TPGS : PEG 400 was administered using a gavage needle (stainless steel, length of 3 inches, and 2.5 mm internal diameter). As blank, a solution containing EtOH, PG, Vit E-TPGS, and PEG without pellitorine was used. Each dose solution was orally administered to three female and three male rats. 1.5 mL blood was collected from the retro orbital vein at 1, 2, 3, 4, 6, and 8 h after administration of the dose solution and was centrifuged for 20 min at room temperature. Thereafter, the serum samples were immediately frozen at −80°C until bioanalysis. The animals were sacrificed at the end of the experiment by CO2 inhalation. Using GraphPad software (La Jolla, USA), the elimination rate constant k e (h^−1) is calculated using the following equation of a one-compartment model: C(t) = C 0 × e ^−ke×t, in which C(t) (ng/mL) is the concentration of pellitorine at time t (h) and C 0 the concentration of pellitorine at time t = 0 (ng/mL). The elimination half-life t 1/2,e (h) is calculated as ln(2)/k e.

[3] = Brain-to-blood transport after intracerebroventricular injection in mice; format: in vivo, ICR-CD-1 mice
Procedure: To evaluate the efflux of pellitorine out of the brain into the blood, a previously described in vivo method was used. Briefly, the ICR-CD-1 mice were anesthetized with 40% (w/V) urethane solution (3 g/kg). Then, the skin of the skull was removed and a hole was made into the lateral ventricle using a 22 G needle marked with tape at 2 mm at the following coordinates: 1 mm lateral and 0.34 mm posterior to the bregma. Using a syringe pump (KDS100, KR analytical, Cheshire, UK), 1 μL of the 1.8 mg/mL pellitorine dose solution as used for the blood-to-brain influx experiment was injected intracerebroventriculary (ICV) at a speed of 360 μL/h for 10 s. […] Just before decapitation, blood was collected from the abdominal aorta and serum was obtained by centrifuging the blood at 10 000 ×g during 15 min at 21°C. Thereafter, brains were collected. The natural logarithm of the pellitorine concentration in brain (ng/g) was plotted versus time. The efflux rate constant k out (min^−1) is obtained from the negative value of the slope of the linear regression, applying first-order kinetics. From k out, the efflux brain half-life (t 1/2,brain) (min) is calculated as follows: t 1/2,brain = ln(2)/k out.

[4] = parameters: method as in PMID 25481393; conditions: cited from earlier work
[5] = female, ICR-CD-1, mouse, serum, iv, 36 μg/mouse
[6] = mice, intravenous, two-compartment model

CCCCC/C=C/C=C/C(=O)NCC(C)C [pellitorine, deca-2E,4E-dienoic acid isobutylamide]
fatty acid uptake (fatty acid uptake): reduces fatty acid uptake | Kp ([1]; female, ICR-CD-1, mouse, brain (relative to serum), iv, 36 μg/mouse): 0.792 | half-life [1, 5]: 4.48 min | k el [1, 5]: 0.0025 s⁻¹ | unidirectional influx rate K 1 ([1]; mice, injection into jugular vein, MTR): 153 µL/g/min | tissue brain distribution volume (V g) ([1]; mice, intravenous, biphasic model): 792 µL/g | C 1 (serum, extrapolation of distribution phase) [1, 6]: 7.02 µg/mL | C 2 (serum, extrapolation of elimination phase) [1, 6]: 0.44 µg/mL | distribution rate constant α ([1]; mouse serum, intravenous, two-compartment model): 1.56 min⁻¹ | toxicity during the experiment ([1]; mouse, in vivo, iv): no toxicity was observed | k el ([2]; both sexes, Wistar, serum, po, 5 mg pellitorine/kg, oral gavage, 5 mg pellitorine/kg (Anacyclus pyrethrum extract dose solution), one-compartment model, read-out: serum elimination rate constant k e (converted)): 8.33e-05 s⁻¹ | half-life ([2]; both sexes, Wistar, serum, oral gavage, 5 mg pellitorine/kg, one-compartment model, read-out: elimination half-life t 1/2,e (converted)): 148 min | maximum serum concentration ([2]; oral administration of 5 mg pellitorine/kg): 26 ng/mL | serum elimination rate constant k e ([2]; oral gavage, 5 mg pellitorine/kg (Anacyclus pyrethrum extract dose solution), one-compartment model): 0.28 h⁻¹ | efflux transfer constant k out [3]: 0.05 min⁻¹ | half-life ([3]; female, ICR-CD-1, mouse, icv or intrathecal, 1.8 μg/mouse, read-out: efflux brain half-life t 1/2,brain): 13.8 min | aqueous permeability coefficient K p,aq ([4]; pellitorine from crude plant extract): 2.3 10^−4 cm/h | aqueous permeability coefficient K p,aq ([4]; purified pellitorine): 1.1 10^−4 cm/h
